Source: patent US20200009088A1, “COMPOSITIONS AND METHODS FOR TREATING ANDROGEN-INDEPENDENT CANCER” (The Regents of the University of California, priority 2017, published 2020)
“Also recorded” adds a separate entry of the source.

How the values were obtained:
[1] = system: LuCaP 35CR PDX xenograft; experiment: LuCaP 35CR PDX tumor model, oral administration; format: in vivo, mice
Text: For the data shown in FIG. 19A, a LuCaP 35CR PDX model was established in male castrated SCID mice. […] Tumor and body weights are shown in FIGS. 19B and 19C, respectively.

[2] = target: T1, AR-FL (Homo sapiens, UniProt P10275, T878A); experiment: PSA-luc assay in C4-2B cells (pcDNA), AR-FL; format: cell-based; settings: FBS, 1 μM overnight, FIG. 14A
T1 construct: endogenous in cells; host or cells: C4-2B cells transfected with pcDNA and the PSA-E/P-luciferase reporter
T1 sequence (P10275 whole entry T878A): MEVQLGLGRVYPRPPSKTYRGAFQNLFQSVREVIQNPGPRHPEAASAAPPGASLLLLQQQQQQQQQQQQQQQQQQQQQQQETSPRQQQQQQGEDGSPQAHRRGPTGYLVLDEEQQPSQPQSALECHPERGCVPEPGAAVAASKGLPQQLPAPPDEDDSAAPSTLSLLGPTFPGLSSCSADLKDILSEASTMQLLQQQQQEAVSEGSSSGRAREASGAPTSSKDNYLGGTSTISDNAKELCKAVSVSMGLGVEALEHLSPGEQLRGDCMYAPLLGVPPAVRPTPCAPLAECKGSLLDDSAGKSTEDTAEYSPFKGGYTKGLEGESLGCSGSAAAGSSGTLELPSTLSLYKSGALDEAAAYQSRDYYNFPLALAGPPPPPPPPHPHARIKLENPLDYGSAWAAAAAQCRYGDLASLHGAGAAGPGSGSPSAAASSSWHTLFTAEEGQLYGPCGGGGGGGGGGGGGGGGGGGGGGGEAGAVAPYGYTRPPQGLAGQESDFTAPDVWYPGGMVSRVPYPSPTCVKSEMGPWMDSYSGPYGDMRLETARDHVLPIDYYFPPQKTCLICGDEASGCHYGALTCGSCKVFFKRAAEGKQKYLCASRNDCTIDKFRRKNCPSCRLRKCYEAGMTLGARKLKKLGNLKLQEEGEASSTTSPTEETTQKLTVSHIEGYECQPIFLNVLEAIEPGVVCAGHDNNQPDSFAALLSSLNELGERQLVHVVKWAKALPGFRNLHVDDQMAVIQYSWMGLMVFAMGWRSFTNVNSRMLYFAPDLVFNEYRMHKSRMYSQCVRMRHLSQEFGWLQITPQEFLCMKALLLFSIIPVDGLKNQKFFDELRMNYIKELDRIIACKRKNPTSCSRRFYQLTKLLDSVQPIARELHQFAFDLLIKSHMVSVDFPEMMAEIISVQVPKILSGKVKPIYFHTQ
Text: (§1) C4-2B cells were cotransfected with pcDNA, with or without AR-V1, AR-V3, AR-V7, AR-V9 or AR-V12, and with PSA-E/P-luciferase plasmids in FBS condition.

[3] = target: T2, wild-type AR (Homo sapiens, UniProt P10275); experiment: AR transactivation luciferase assay in HEK 293 cells, wild-type AR; format: cell-based; settings: luciferase reporter, FIG. 5A
T2 construct: expressed in transfected cells; host or cells: HEK 293
T2 sequence (P10275 whole entry): as the sequence (P10275 whole entry T878A) above, with A878T counted along it
Experimental: (§2) HEK 293 cells were transiently transfected with expression vectors encoding the corresponding mutant AR and an androgen-responsive luciferase reporter gene construct. […] Luciferase activity was then determined.

[4] = target: T3, AR-V12 (Homo sapiens, UniProt P10275); experiment: PSA-luc assay in C4-2B cells, AR-V12; format: cell-based; settings: FBS, 1 μM overnight, FIG. 14F
T3 construct: expressed in transfected cells; host or cells: C4-2B
T3 sequence (P10275 with tags, fused parts or gaps limits assumed): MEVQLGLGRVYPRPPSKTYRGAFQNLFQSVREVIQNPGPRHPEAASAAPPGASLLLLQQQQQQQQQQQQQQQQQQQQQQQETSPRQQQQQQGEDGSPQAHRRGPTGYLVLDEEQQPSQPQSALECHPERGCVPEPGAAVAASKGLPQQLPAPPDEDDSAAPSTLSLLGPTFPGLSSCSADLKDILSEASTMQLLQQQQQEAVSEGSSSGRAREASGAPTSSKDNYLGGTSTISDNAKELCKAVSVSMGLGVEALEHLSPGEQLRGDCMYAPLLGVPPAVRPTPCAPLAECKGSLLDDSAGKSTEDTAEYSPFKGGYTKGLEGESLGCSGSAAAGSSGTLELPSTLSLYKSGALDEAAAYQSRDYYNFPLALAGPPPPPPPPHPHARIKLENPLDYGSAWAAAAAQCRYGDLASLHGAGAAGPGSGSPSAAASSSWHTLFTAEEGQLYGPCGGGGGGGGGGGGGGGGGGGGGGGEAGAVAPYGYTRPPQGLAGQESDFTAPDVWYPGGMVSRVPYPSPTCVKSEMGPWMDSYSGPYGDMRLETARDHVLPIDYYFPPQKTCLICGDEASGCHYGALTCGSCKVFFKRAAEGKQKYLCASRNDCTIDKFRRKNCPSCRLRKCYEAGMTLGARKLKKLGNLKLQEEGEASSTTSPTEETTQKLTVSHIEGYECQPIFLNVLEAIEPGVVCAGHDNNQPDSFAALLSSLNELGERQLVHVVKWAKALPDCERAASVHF
Text: as §1

[5] = target: T4, K581R AR mutant (Homo sapiens, UniProt P10275, K581R); experiment: AR transactivation luciferase assay in HEK 293 cells, K581R; format: cell-based; settings: luciferase reporter, FIG. 5D
T4 construct: expressed in transfected cells; host or cells: HEK 293
T4 sequence (P10275 whole entry K581R): as the sequence (P10275 whole entry T878A) above, with K581R, A878T counted along it
Experimental: as §2

[6] = target: T5, AR-V1 (Homo sapiens, UniProt P10275); experiment: PSA-luc assay in C4-2B cells, AR-V1; format: cell-based; settings: FBS, 1 μM overnight, FIG. 14B
T5 construct: expressed in transfected cells; host or cells: C4-2B
T5 sequence (P10275 1-648 isoform P10275-4): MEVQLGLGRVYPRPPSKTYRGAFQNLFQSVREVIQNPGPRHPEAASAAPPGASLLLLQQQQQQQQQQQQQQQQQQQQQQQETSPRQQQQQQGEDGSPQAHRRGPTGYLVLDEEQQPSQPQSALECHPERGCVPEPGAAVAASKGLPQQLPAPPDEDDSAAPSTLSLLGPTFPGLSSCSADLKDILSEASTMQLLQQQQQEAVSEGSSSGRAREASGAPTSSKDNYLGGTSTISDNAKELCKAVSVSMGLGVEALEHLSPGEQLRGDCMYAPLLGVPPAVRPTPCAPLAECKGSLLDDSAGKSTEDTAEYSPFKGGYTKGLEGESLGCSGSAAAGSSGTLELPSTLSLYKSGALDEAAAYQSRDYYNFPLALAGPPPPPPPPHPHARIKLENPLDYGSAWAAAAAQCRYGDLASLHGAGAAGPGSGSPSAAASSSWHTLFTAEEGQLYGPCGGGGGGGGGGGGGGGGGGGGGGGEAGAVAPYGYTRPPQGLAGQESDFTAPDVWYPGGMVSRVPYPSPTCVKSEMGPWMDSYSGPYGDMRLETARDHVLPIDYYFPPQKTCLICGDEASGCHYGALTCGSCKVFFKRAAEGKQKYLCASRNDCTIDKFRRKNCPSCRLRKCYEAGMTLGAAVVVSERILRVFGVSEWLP
Text: as §1

[7] = system: MCF-7 cells; experiment: Breast cancer cell growth, MCF-7; format: cell-based; settings: three days, FIG. 20B
[8] = system: CWR22Rv1 tumor xenografts; experiment: CWR22Rv1 tumor xenograft growth in vivo
Experimental: (§3) Tumor volume, tumor weight, and body weight were measured. Protein lysates were isolated from the tumors and analyzed for AR and AR-V7 expression by Western blot. […] “AR-Variants” represents a combination of all forms of AR. * denotes p<0.05.
(§4) Protein lysates were isolated and analyzed for AR and AR-V7 expression by Western blot.

[9] = system: AR-V3; experiment: PSA-luc assay in C4-2B cells, AR-V3; format: cell-based; settings: FBS, 1 μM overnight, FIG. 14C
Text: as §1

[10] = system: C4-2B AbiR cells; experiment: Cell growth assay (cell numbers), C4-2B AbiR; format: cell-based; settings: 0.5 μM + enzalutamide, 48 hours, FIG. 7C
[11] = system: C4-2BMDVR cells; experiment: ELISA cell death (apoptosis) assay; format: cell-based; settings: FIG. 8; for cell apoptosis: compound alone, analogs compared with niclosamide
Experimental: To further examine the anti-cancer effects of these compounds, an ELISA cell death assay was performed.

[12] = target: T6, AR-V7 (Homo sapiens, UniProt P10275); experiment: AR transactivation luciferase assay in HEK 293 cells, AR-V7; format: cell-based; settings: luciferase reporter, FIG. 5B
T6 sequence (P10275 1-644 isoform P10275-3): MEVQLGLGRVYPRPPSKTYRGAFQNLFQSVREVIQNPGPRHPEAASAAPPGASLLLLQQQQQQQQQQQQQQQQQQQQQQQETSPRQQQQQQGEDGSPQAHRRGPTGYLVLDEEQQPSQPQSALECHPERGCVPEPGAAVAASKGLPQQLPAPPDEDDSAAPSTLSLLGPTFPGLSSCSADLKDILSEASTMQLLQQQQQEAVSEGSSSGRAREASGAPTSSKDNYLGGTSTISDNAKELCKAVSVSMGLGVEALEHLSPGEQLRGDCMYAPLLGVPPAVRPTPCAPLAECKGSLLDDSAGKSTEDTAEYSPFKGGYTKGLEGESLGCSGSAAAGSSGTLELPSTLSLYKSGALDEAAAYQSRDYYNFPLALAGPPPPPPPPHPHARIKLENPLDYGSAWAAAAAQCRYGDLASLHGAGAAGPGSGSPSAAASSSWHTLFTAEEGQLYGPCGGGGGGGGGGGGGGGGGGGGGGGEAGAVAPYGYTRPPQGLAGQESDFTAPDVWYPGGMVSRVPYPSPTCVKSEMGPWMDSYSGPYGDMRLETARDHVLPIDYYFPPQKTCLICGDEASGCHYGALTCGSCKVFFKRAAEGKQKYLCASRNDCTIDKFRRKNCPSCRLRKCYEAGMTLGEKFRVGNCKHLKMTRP
Experimental: as §2

[13] = system: CWR22Rv1 cells; experiment: Cell growth assay (cell numbers), CWR22Rv1; format: cell-based; settings: for cell proliferation, combination with enzalutamide (MDV): CWR22Rv1, 0.5 μM + enzalutamide, 48 hours, FIG. 7A; for cell growth: CWR22Rv1, 48 hours, increasing doses of niclosamide/analogs, FIG. 6
[14] = target: T6, AR-V7; experiment: Western blot of AR-V7 in CWR22Rv1 xenograft tumor lysates; format: in vivo; design: endogenous in cells; host or cells: CWR22Rv1 prostate cancer cells (also grown as xenograft tumours); settings: CWR22Rv1 xenograft lysates vs controls, FIG. 13D
Experimental: as §3, §4

[15] = system: AR; experiment: Western blot of AR in CWR22Rv1 xenograft tumor lysates; format: in vivo; settings: CWR22Rv1 xenograft lysates vs controls, FIG. 13D
Experimental: as §3, §4

[16] = target: T6, AR-V7; experiment: PSA-luc assay in C4-2B cells, AR-V7; format: cell-based; settings: FBS, 1 μM overnight, FIG. 14D
Text: as §1

[17] = system: AR; experiment: Western blot of AR expression in CWR22Rv1 cell lysates; format: cell-based; settings: CWR22Rv1 cells, FIG. 2A
Experimental: “AR-Variants” represents a combination of all forms of AR.
The effects of the synthetic small molecule modulators on AR and AR variant expression were determined. CWR22Ry1 prostate cancer cells were treated with different compounds. Protein lysates were analyzed for AR and AR variant expression.

O=C(Nc1ccc(C(F)(F)F)cc1Cl)c1cc(Cl)ccc1O [Compound 7]
serum PSA levels compared with niclosamide ([1]; both p.o. 150 mg/kg): to a greater extent than niclosamide | anti-tumor activity (tumor volume) compared with niclosamide ([1]; both p.o. 150 mg/kg, 150 mg/kg): to a greater extent than niclosamide; also recorded: better anti-tumor activity than niclosamide | tumor growth ([1]; castrated SCID mice, p.o. 150 mg/kg, 4 weeks, FIG. 19, 150 mg/kg): significantly inhibited; also recorded: suppressed | body weight ([1]; castrated SCID mice, p.o. 150 mg/kg, 4 weeks, FIG. 19C): without inhibition of body weight | PSA protein expression in mouse sera ([1]; p.o. 150 mg/kg, 4 weeks, FIG. 19D): inhibited | AR-FL-mediated transcriptional activity (PSA-luc) [2]: inhibited | wild-type AR transactivation [3]: blocked | AR-V12-mediated PSA-luc activity [4]: inhibited | K581R mutant AR transactivation [5]: significantly blocked | AR-V1-mediated PSA-luc activity [6]: inhibited | breast cancer cell growth [7]: inhibited | body weight ([8]; FIG. 13B): without inhibition of body weight | tumor growth ([8]; FIGS. 13A-13C): significantly inhibited | AR-V3-mediated PSA-luc activity [9]: inhibited | cell proliferation, combination with enzalutamide (MDV) [10]: further inhibited | cell apoptosis [11]: further enhanced | apoptotic cell death, combination with enzalutamide (MDV) [11]: further increased | AR-V7 transactivation [12]: significantly blocked | cell proliferation, combination with enzalutamide (MDV) [13]: further inhibited | cell growth [13]: able to inhibit cell growth in a dose-dependent manner | AR-V7 protein expression in tumors [14]: significantly inhibited | AR protein expression in tumors [15]: significantly inhibited | AR-V7-mediated PSA-luc activity [16]: inhibited | AR expression [17]: inhibited

C=CC(=O)Oc1ccc(Cl)cc1C(=O)Nc1ccc([N+](=O)[O-])cc1Cl [Compound 31]
AR-FL-mediated transcriptional activity (PSA-luc) [2]: inhibited | wild-type AR transactivation [3]: blocked | AR-V12-mediated PSA-luc activity [4]: inhibited | K581R mutant AR transactivation [5]: significantly blocked | AR-V1-mediated PSA-luc activity [6]: inhibited | breast cancer cell growth [7]: inhibited | AR-V3-mediated PSA-luc activity [9]: inhibited | cell proliferation, combination with enzalutamide (MDV) [10]: further inhibited | cell apoptosis [11]: further enhanced | apoptotic cell death, combination with enzalutamide (MDV) [11]: further increased | AR-V7 transactivation [12]: significantly blocked | cell proliferation, combination with enzalutamide (MDV) [13]: further inhibited | cell growth [13]: able to inhibit cell growth in a dose-dependent manner | AR-V7-mediated PSA-luc activity [16]: inhibited | AR expression [17]: inhibited
